Where a SMILES comes first, the peptide text is derived from it.
Legend:
WSSV = test: Antiviral activity detection: WSSV pre-incubated with peptide injected into E. carinicauda, in vivo WSSV copy number; parameters: species or system Exopalaemon carinicauda; details: E. carinicauda pleopods, 24 h post injection; WSSV (10^3 copies/μL) pre-incubated 2 h at room temperature with 50 μM peptide, 10 μL injected; VP28 real-time PCR; n = 15; WSSV group 1.21 × 10^5, blank 1.31 × 10^3
Method: Exopalaemon carinicauda is being regarded as a good crustacean model animal for WSSV infection experiments. In this study, healthy E. carinicauda with a body length of 5.43 ± 0.30 cm and a body weight of 2.62 ± 0.42 g were used as experimental animals for WSSV infection assay. Animals were acclimatized in the aerated seawater at 25 °C for 1 day before experiments.
In order to learn the effect of synthetic LBD peptides on WSSV infection, WSSV pre-incubated with different peptides was injected into E. carinicauda and the WSSV copy number in the pleopods of E. carinicauda was detected. E. carinicauda was classified into 13 groups and each group contained 18 to 20 individuals. The 13 groups were named as Blank, WSSV, pGFP, LBD1, LBD2, LBD3, LBD4, LBD5, LBD6, LBD7, sLBD2, LBD2-K and LBD4+K, respectively. Synthetic peptides were diluted into 50 μM with PBS (pH 7.4). WSSV was incubated with each peptide solution for 2 h at room temperature with a final concentration 10^3 copies/μL. […] For WSSV group, each shrimp was injected with 10 μL WSSV incubated with PBS (pH 7.4) for 2 h at room temperature. For the other groups (LBD1–LBD7, sLBD2, LBD2-K and LBD4+K), each shrimp was injected with 10 μL of WSSV solution after incubation with corresponding synthetic peptides, respectively. At 24 h post injection (hpi), the pleopods of 15 shrimps in each group were collected and the pleopods from three individuals were put together as one sample. Total DNA of each sample was extracted using the Genomic DNA Kit (Tiangen, China). The viral copy number was measured by detecting the level of VP28 using real-time PCR as described previously.

A. hydrophila = test: Inhibition zone test; assay type: cell-based, Aeromonas hydrophila; details: 20 μL of 64 μM peptide in PBS pH 7.4 on 6 mm filter paper, solid LB plate, 28 °C, 24 h
Method: (§1) Gram-negative bacteria, including Escherichia coli and Aeromonas hydrophila, and Gram-positive bacteria, including Micrococcus luteus and Bacillus simplex were used for antibacterial analyses. The strains were incubated in fresh LB medium overnight at 37 °C for E. coli, M. luteus and 28 °C for A. hydrophila, B. simplex.
(§2) The antibacterial activities of LBD peptides were examined by inhibition zone test. The overnight cultures of bacteria were diluted 100 times and cultured in LB medium at 37 °C (E. coli and M. luteus) or 28 °C (A. hydrophila and B. simplex) for 6 h. These cultures were then diluted 100 times with LB medium separately, and 200 μL solutions from each diluted cultures was taken out and spread on the solid LB medium plate uniformly. Sterile filter paper with a diameter of 6 mm was put on the surface of solid LB medium gently. Twenty microliters of 64 μM peptide solution dissolved in PBS (pH 7.4) was added to the center of filter paper with a diameter of 6 mm. Twenty microliters PBS and 20 μL of 64 μM pGFP peptide were used as negative controls. […] ampicillin solutions was used as the positive control for E. coli, M. luteus and B. simplex culture, and 50 μM kanamycin sulfates was used as the positive control for A. hydrophila culture. The plates were cultured at 37 °C (E. coli and M. luteus) or 28 °C (A. hydrophila and B. simplex) for 24 h.

E. coli = test: Inhibition zone test; assay type: cell-based, Escherichia coli; details: 20 μL of 64 μM peptide in PBS pH 7.4 on 6 mm filter paper, solid LB plate, 37 °C, 24 h
Method: as §1, §2

M. luteus = test: Inhibition zone test; assay type: cell-based, Micrococcus luteus; details: 20 μL of 64 μM peptide in PBS pH 7.4 on 6 mm filter paper, solid LB plate, 37 °C, 24 h
Method: as §1, §2

Compound: CC[C@H](C)[C@@H]1NC(=O)[C@H](Cc2ccc(O)cc2)NC(=O)[C@@H]2CCCN2C(=O)[C@H](CCCCN)NC(=O)[C@H](C(C)C)NC(=O)[C@H]([C@@H](C)O)NC(=O)[C@H](Cc2ccccc2)NC(=O)[C@H](CCCCN)NC(=O)[C@@H](NC(=O)[C@H](CCC(=O)O)NC(C)=O)CSSC[C@@H](C(=O)N2CCC[C@H]2C(N)=O)NC(=O)[C@H](Cc2c[nH]c3ccccc23)NC(=O)[C@H](CCSC)NC(=O)[C@H](CCCNC(=N)N)NC(=O)CNC(=O)[C@H](CCCCN)NC(=O)[C@H](Cc2ccc(O)cc2)NC(=O)[C@H](Cc2ccc(O)cc2)NC(=O)[C@H](CC(C)C)NC(=O)[C@H](CCC(N)=O)NC(=O)[C@H](Cc2ccccc2)NC(=O)[C@H](CCCNC(=N)N)NC(=O)[C@H](CCCCN)NC1=O [LBD7] (HELM PEPTIDE1{[ac].E.C.K.F.T.V.K.P.Y.I.K.R.F.Q.L.Y.Y.K.G.R.M.W.C.P.[am]}$PEPTIDE1,PEPTIDE1,3:R3-24:R3$$$V2.0)
- WSSV copy number (WSSV): 5.07 × 10^3 copies/ng DNA
- Inhibition zone (A. hydrophila): exhibited inhibition zones
- Inhibition zone (E. coli): apparent inhibition zones

Compound: CSCC[C@@H]1NC(=O)[C@H](CCCNC(=N)N)NC(=O)CNC(=O)[C@H](CCCNC(=N)N)NC(=O)[C@H](Cc2ccccc2)NC(=O)[C@H](Cc2ccc(O)cc2)NC(=O)[C@H](CC(C)C)NC(=O)[C@H](CCC(N)=O)NC(=O)[C@H](Cc2c[nH]c3ccccc23)NC(=O)[C@H](CCCNC(=N)N)NC(=O)[C@H](CCCCN)NC(=O)[C@H](Cc2ccccc2)NC(=O)[C@H](CCCCN)NC(=O)[C@@H]2CCCN2C(=O)[C@H]([C@@H](C)O)NC(=O)[C@H](C(C)C)NC(=O)[C@H](CC(N)=O)NC(=O)[C@H](Cc2ccccc2)NC(=O)[C@H](CO)NC(=O)[C@@H](NC(=O)[C@H](Cc2ccc(O)cc2)NC(C)=O)CSSC[C@@H](C(=O)N2CCC[C@H]2C(N)=O)NC(=O)[C@H](Cc2c[nH]c3ccccc23)NC1=O [LBD2] (HELM PEPTIDE1{[ac].Y.C.S.F.N.V.T.P.K.F.K.R.W.Q.L.Y.F.R.G.R.M.W.C.P.[am]}$PEPTIDE1,PEPTIDE1,3:R3-24:R3$$$V2.0)
- WSSV copy number (WSSV): 1.40 × 10^3 copies/ng DNA
- Inhibition zone (M. luteus): Obvious inhibition zones
- Inhibition zone (A. hydrophila): exhibited inhibition zones

Compound: Ac-Y(CSFNVTPKFQRWQLYFRGRMWC)P-NH2 (disulfide) [LBD2-K, same as LBD2 except for the replacement of a lysine residue by a glutamine residue]
- WSSV copy number (WSSV): 5.14 × 10^4 copies/ng DNA

Compound: CC[C@H](C)[C@@H]1NC(=O)[C@H](Cc2ccccc2)NC(=O)[C@H](Cc2ccc(O)cc2)NC(=O)[C@H](CC(C)C)NC(=O)[C@H](CCC(=O)O)NC(=O)[C@H](Cc2ccccc2)NC(=O)CNC(=O)[C@H](CCC(N)=O)NC(=O)[C@H]([C@@H](C)CC)NC(=O)[C@H](CC(=O)O)NC(=O)[C@@H]2CCCN2C(=O)[C@H](CCCCN)NC(=O)[C@H](C(C)C)NC(=O)[C@H](CO)NC(=O)[C@H](Cc2ccc(O)cc2)NC(=O)[C@H](CO)NC(=O)[C@@H](NC(=O)[C@H](CO)NC(C)=O)CSSC[C@@H](C(=O)N2CCC[C@H]2C(N)=O)NC(=O)[C@H]([C@@H](C)O)NC(=O)[C@H](C(C)C)NC(=O)[C@H](CO)NC(=O)CNC1=O [LBD6] (HELM PEPTIDE1{[ac].S.C.S.Y.S.V.K.P.D.I.Q.G.F.E.L.Y.F.I.G.S.V.T.C.P.[am]}$PEPTIDE1,PEPTIDE1,3:R3-24:R3$$$V2.0)
- WSSV copy number (WSSV): 1.55 × 10^5 copies/ng DNA
- Inhibition zone (E. coli): apparent inhibition zones

Compound: Ac-S(CRYSQRPSFKRWELYFNGRMWC)P-NH2 (disulfide) [LBD4+K, same as LBD4 except for the replacement of a tyrosine residue by a lysine residue]
- WSSV copy number (WSSV): 3.40 × 10^3 copies/ng DNA

Compound: CC[C@H](C)[C@@H]1NC(=O)[C@H](Cc2ccccc2)NC(=O)[C@H](Cc2ccc(O)cc2)NC(=O)[C@H](CC(C)C)NC(=O)[C@H](CCC(N)=O)NC(=O)[C@H](Cc2c[nH]c3ccccc23)NC(=O)[C@H](CCCNC(=N)N)NC(=O)[C@H](CCC(N)=O)NC(=O)[C@H](Cc2ccccc2)NC(=O)[C@H]([C@@H](C)O)NC(=O)[C@@H]2CCCN2C(=O)[C@H](CCCCN)NC(=O)[C@H](C(C)C)NC(=O)[C@H](CO)NC(=O)[C@H](Cc2ccc(O)cc2)NC(=O)[C@H](C(C)C)NC(=O)[C@@H](NC(=O)[C@H](Cc2ccc(O)cc2)NC(C)=O)CSSC[C@@H](C(=O)N2CCC[C@H]2C(N)=O)NC(=O)[C@H](Cc2c[nH]c3ccccc23)NC(=O)[C@H](CCSC)NC(=O)[C@H](CO)NC(=O)CNC1=O [LBD3] (HELM PEPTIDE1{[ac].Y.C.V.Y.S.V.K.P.T.F.Q.R.W.Q.L.Y.F.I.G.S.M.W.C.P.[am]}$PEPTIDE1,PEPTIDE1,3:R3-24:R3$$$V2.0)
- WSSV copy number (WSSV): 1.19 × 10^5 copies/ng DNA
- Inhibition zone (M. luteus): Obvious inhibition zones

Compound: Ac-FKRWQLYFRG-NH2 [sLBD2, a part (ten amino acid residues) of LBD]
- WSSV copy number (WSSV): 4.04 × 10^3 copies/ng DNA

Compound: CSCC[C@@H]1NC(=O)[C@H](CCCNC(=N)N)NC(=O)CNC(=O)[C@H](CCCCN)NC(=O)[C@H](Cc2ccccc2)NC(=O)[C@H](Cc2ccc(O)cc2)NC(=O)[C@H](CC(C)C)NC(=O)[C@H](CCC(=O)O)NC(=O)[C@H](Cc2ccccc2)NC(=O)[C@H](CO)NC(=O)[C@H](CCCCN)NC(=O)[C@H](C(C)C)NC(=O)[C@H]([C@@H](C)O)NC(=O)[C@@H]2CCCN2C(=O)[C@H]([C@@H](C)O)NC(=O)[C@H](C(C)C)NC(=O)[C@H](CO)NC(=O)[C@H](Cc2ccc(O)cc2)NC(=O)[C@H]([C@@H](C)O)NC(=O)[C@@H](NC(=O)[C@H](CCC(N)=O)NC(C)=O)CSSC[C@@H](C(=O)N2CCC[C@H]2C(N)=O)NC(=O)[C@H](CO)NC1=O [LBD1] (HELM PEPTIDE1{[ac].Q.C.T.Y.S.V.T.P.T.V.K.S.F.E.L.Y.F.K.G.R.M.S.C.P.[am]}$PEPTIDE1,PEPTIDE1,3:R3-24:R3$$$V2.0)
- WSSV copy number (WSSV): 4.36 × 10^3 copies/ng DNA
- Inhibition zone (M. luteus): Obvious inhibition zones
- Inhibition zone (E. coli): apparent inhibition zones

Compound: CSCC[C@@H]1NC(=O)[C@H](CCCNC(=N)N)NC(=O)CNC(=O)[C@H](CC(N)=O)NC(=O)[C@H](Cc2ccccc2)NC(=O)[C@H](Cc2ccc(O)cc2)NC(=O)[C@H](CC(C)C)NC(=O)[C@H](CCC(=O)O)NC(=O)[C@H](Cc2c[nH]c3ccccc23)NC(=O)[C@H](CCCNC(=N)N)NC(=O)[C@H](Cc2ccc(O)cc2)NC(=O)[C@H](Cc2ccccc2)NC(=O)[C@H](CO)NC(=O)[C@@H]2CCCN2C(=O)[C@H](CCCNC(=N)N)NC(=O)[C@H](CCC(N)=O)NC(=O)[C@H](CO)NC(=O)[C@H](Cc2ccc(O)cc2)NC(=O)[C@H](CCCNC(=N)N)NC(=O)[C@@H](NC(=O)[C@H](CO)NC(C)=O)CSSC[C@@H](C(=O)N2CCC[C@H]2C(N)=O)NC(=O)[C@H](Cc2c[nH]c3ccccc23)NC1=O [LBD4] (HELM PEPTIDE1{[ac].S.C.R.Y.S.Q.R.P.S.F.Y.R.W.E.L.Y.F.N.G.R.M.W.C.P.[am]}$PEPTIDE1,PEPTIDE1,3:R3-24:R3$$$V2.0)
- WSSV copy number (WSSV): 7.24 × 10^4 copies/ng DNA
- Inhibition zone (E. coli): apparent inhibition zones

Compound: CC(=O)N[C@@H](Cc1ccc(O)cc1)C(=O)N[C@H]1CSSC[C@@H](C(=O)N2CCC[C@H]2C(N)=O)NC(=O)[C@H](CCCCN)NC(=O)[C@H](CC(C)C)NC(=O)[C@H](CCC(=O)O)NC(=O)[C@H](C)NC(=O)[C@H](CCCNC(=N)N)NC(=O)[C@H](Cc2ccc(O)cc2)NC(=O)[C@H](Cc2c[nH]cn2)NC(=O)[C@H](C(C)C)NC(=O)[C@H](CCC(=O)O)NC(=O)[C@H](CC(C)C)NC(=O)[C@H](CCCCN)NC(=O)[C@H](CCCCN)NC(=O)[C@H](CC(C)C)NC(=O)[C@H](Cc2ccc(O)cc2)NC(=O)[C@@H]2CCCN2C(=O)[C@H](CO)NC(=O)[C@H](CCCNC(=N)N)NC(=O)[C@H](CO)NC(=O)[C@H](CC(C)C)NC(=O)[C@H](CC(C)C)NC1=O [LBD5] (HELM PEPTIDE1{[ac].Y.C.L.L.S.R.S.P.Y.L.K.K.L.E.V.H.Y.R.A.E.L.K.C.P.[am]}$PEPTIDE1,PEPTIDE1,3:R3-24:R3$$$V2.0)
- WSSV copy number (WSSV): 2.07 × 10^3 copies/ng DNA

Reference: article PMC4446596, “Functional Diversity of Anti-Lipopolysaccharide Factor Isoforms in Shrimp and Their Characters Related to Antiviral Activity” (Marine Drugs, 2015)
